Experimental data from ChEMBL document CHEMBL2163329, “Tuberculosis: the drug development pipeline at a glance” (Eur J Med Chem, 2012).
Converted amounts (≈) assume the structure as drawn.

Columns and labels:
[1] = test system: Mycobacterium tuberculosis; assay: Antimycobacterial activity against drug-sensitive Mycobacterium tuberculosis; format: functional
[2] = test system: Mycobacterium tuberculosis; assay: Antimycobacterial activity against Mycobacterium tuberculosis infected in mouse assessed as log reduction of CFU in lung at 10 to 25 mg/kg after 30 days; format: functional; details: dose mg/kg 10-25
[3] = Oral bioavailability in mouse at 10 mg/kg; format: ADME, organism-based; details: in vivo
[4] = Half life in human up to 300 mg, po; format: ADME, organism-based; details: in vivo
[5] = test system: Mycobacterium tuberculosis; assay: Antimycobacterial activity against Mycobacterium tuberculosis infected in mouse assessed as log reduction of CFU in spleen at 10 to 25 mg/kg after 30 days; format: functional; details: dose mg/kg 10-25
[6] = test system: Mycobacterium tuberculosis; assay: Antimycobacterial activity against Mycobacterium tuberculosis; format: functional
[7] = test system: Mycobacterium tuberculosis; assay: Antimycobacterial activity against Mycobacterium tuberculosis infected in human assessed as log reduction of bacterial count at 400 mg, qd measured up to 7 days; format: functional
[8] = test system: Mycobacterium tuberculosis; assay: Antimycobacterial activity against Mycobacterium tuberculosis infected in human assessed as log reduction of bacterial count at 300 mg, qd measured up to 2 days; format: functional
[9] = AUC at steady state (0 to 24 hrs) in human at 400 mg, po qd for 14 days; format: ADME, organism-based; design: dose 400 mg, time < 24 hr, route oral; details: plasma
[10] = test system: Mycobacterium tuberculosis; assay: Antimycobacterial activity against Mycobacterium tuberculosis clinical isolate; format: functional
[11] = Cmax in human at 10 mg, po; format: ADME, organism-based; design: dose 10 mg, route oral; details: in vivo
[12] = test system: Mycobacterium tuberculosis; assay: Antimycobacterial activity against Mycobacterium tuberculosis H37Rv; format: functional
[13] = Cmax in human at 400 mg, po; format: ADME, organism-based; design: dose 400 mg, route oral; details: in vivo
[14] = AUC at steady state (0 to 24 hrs) in human at 50 mg, po qd for 14 days; format: ADME, organism-based; design: dose 50 mg, time < 24 hr, route oral; details: plasma
[15] = AUC at steady state (0 to 24 hrs) in human at 150 mg, po qd for 14 days; format: ADME, organism-based; design: dose 150 mg, time < 24 hr, route oral; details: plasma
[16] = AUC in mouse at 100 mg/kg; format: ADME, organism-based; design: dose 100 mg/kg; details: plasma
[17] = Half life in human at 400 mg, po; format: ADME, organism-based; details: in vivo
[18] = AUC in human at 400 mg, po; format: ADME, organism-based; details: plasma
[19] = (§1) Tmax in human at 400 mg, po; format: ADME, organism-based; details: in vivo, 400 mg
[20] = test system: Mycobacterium tuberculosis; assay: Antimycobacterial activity against Mycobacterium tuberculosis infected in human assessed as log reduction of bacterial count at 400 mg, qd measured up to 2 days; format: functional
[21] = Bioavailability in human; format: ADME, organism-based; details: in vivo
[22] = test system: Homo sapiens; assay: as §1; format: ADME, organism-based; details: in vivo
[23] = Bioavailability in human at 50 mg; format: ADME, organism-based; details: in vivo
[24] = Bioavailability in human at 1200 mg; format: ADME, organism-based; details: in vivo
[25] = test system: Mycobacterium tuberculosis; assay: Antimycobacterial activity against Mycobacterium tuberculosis infected in mouse administered as qd; format: functional
[26] = Cmax in human at 50 to 1500 mg, po; format: ADME, organism-based; details: in vivo
[27] = test system: Mycobacterium tuberculosis; assay: Antimycobacterial activity against Mycobacterium tuberculosis infected in human assessed as log reduction of bacterial count at 200 to 1200 mg; format: functional
[28] = Tmax in human at 50 to 1500 mg, po; format: ADME, organism-based; details: in vivo
[29] = AUC in human at 50 to 1500 mg, po; format: ADME, organism-based; details: plasma
[30] = Cmax in Mycobacterium tuberculosis H37Rv infected BALB/c mouse at 37.5 to 300 mg/kg, po administered 6 times per week for 4 weeks; format: ADME, organism-based; design: dose 37.5-300 mg/kg, route oral; details: in vivo
[31] = AUC in Mycobacterium tuberculosis H37Rv infected BALB/c mouse at 37.5 to 300 mg/kg, po administered 6 times per week for 4 weeks; format: ADME, organism-based; design: dose 37.5-300 mg/kg, route oral; details: plasma
[32] = test system: Mycolicibacterium smegmatis; assay: Antimycobacterial activity against Mycobacterium smegmatis; format: functional
[33] = test system: Mycobacterium tuberculosis; assay: Antimycobacterial activity against Mycobacterium tuberculosis H37Rv infected in BALB/c mouse assessed as log reduction of CFU in spleen at 300 mg/kg, po administered 6 times per week for 4 weeks; format: functional
[34] = test system: Mycobacterium tuberculosis; assay: Antimycobacterial activity against Mycobacterium tuberculosis H37Rv infected in BALB/c mouse assessed as log reduction of CFU in lung at 300 mg/kg, po administered 6 times per week for 4 weeks; format: functional
[35] = test system: Mycobacterium tuberculosis; assay: Antimycobacterial activity against Mycobacterium tuberculosis infected in human assessed as log reduction of bacterial count at 100 to 400 mg, qd for 14 days; format: functional
[36] = Tmax in smear positive tuberculosis patient; format: ADME, organism-based; details: human, in vivo
[37] = Tmax in Mycobacterium tuberculosis infected mouse at 2.5 mg/kg; format: ADME, organism-based; design: dose 2.5 mg/kg; details: in vivo
[38] = AUC in Mycobacterium tuberculosis infected mouse at 2.5 mg/kg; format: ADME, organism-based; design: dose 2.5 mg/kg; details: plasma
[39] = test system: Mycobacterium tuberculosis; assay: Antimycobacterial activity against Mycobacterium tuberculosis infected in macrophages assessed as bacterial growth inhibition at 4 ug/mL; format: functional; details: read-out: GI
[40] = Cmax in mouse serum at 100 mg/kg; format: ADME, organism-based; design: dose 100 mg/kg
[41] = Cmax in monkey at 5 mg/kg; format: ADME, organism-based, Macaca mulatta; design: dose 5 mg/kg; details: rhesus monkey, in vivo
[42] = AUC (0 to infinity) in mouse serum at 100 mg/kg; format: ADME, organism-based; design: time infinity, dose 100 mg/kg
[43] = test system: Mycobacterium tuberculosis; assay: Ratio of moxifloxacin MIC to compound MIC for Mycobacterium tuberculosis; format: functional
[44] = test system: Mycobacterium tuberculosis; assay: Ratio of levofloxacin MIC to compound MIC for Mycobacterium tuberculosis; format: functional
[45] = test system: Mycobacterium tuberculosis; assay: Ratio of gatifloxacin MIC to compound MIC for Mycobacterium tuberculosis; format: functional
[46] = test system: Mycobacterium tuberculosis; assay: Antimycobacterial activity against Mycobacterium tuberculosis infected in mouse assessed as log reduction of CFU in lung at 100 mg/kg; format: functional
[47] = AUC (0 to 24 hrs) in monkey at 5 mg/kg; format: ADME, organism-based, Macaca mulatta; design: time < 24 hr, dose 5 mg/kg; details: rhesus monkey, plasma
[48] = Half life in mouse lung at 100 mg/kg; format: ADME, organism-based; design: dose 100 mg/kg
[49] = Half life in mouse serum at 100 mg/kg; format: ADME, organism-based; design: dose 100 mg/kg

CC(=O)NC[C@H]1CN(c2ccc(N3CCSCC3)c(F)c2)C(=O)O1 [SUTEZOLID]
MIC [1]: 0.03 µg/mL

CC(C)=CCC/C(C)=C/CNCCNC1C2CC3CC(C2)CC1C3 (stereo not given) [SQ109]
log10cfu [2]: 1.5
bioavailability [3]: 8%
half-life [4]: 61 h
MIC [1]: 0.63 µM
log10cfu [5]: 1.5

CC(=O)NC[C@H]1CN(c2ccc([S+](C)[O-])cc2)C(=O)O1 (stereo not given in full)
MIC [6]: 0.3 µg/mL (≈ 1.01 µM)

NNC(=O)c1ccncc1 [ISONIAZID]
log10CFU/ml [7]: 1.88
log10CFU/ml/day [8]: 0.67

CC(=O)NC[C@H]1CN(c2ccc(N3CCOCC3)c(F)c2)C(=O)O1 [LINEZOLID]
MIC [6]: 0.125 µg/mL (≈ 0.371 µM)

COc1nc2ccc(Br)cc2cc1[C@@H](c1ccccc1)[C@@](O)(CCN(C)C)c1cccc2ccccc12 [BEDAQUILINE]
AUC at 24 h [9]: 52000 ng·h/mL
MIC [10]: 0.03 µg/mL (≈ 0.054 µM)
Cmax [11]: 70 ng/mL
log10CFU/ml [7]: 0.77
MIC99 [12]: 0.03 µg/mL (≈ 0.054 µM)
Cmax [13]: 9000 ng/mL
AUC at 24 h [14]: 7900 ng·h/mL
AUC at 24 h [15]: 24000 ng·h/mL
MIC [1]: 0.003 µg/mL

N#CCC(=O)N1CCC(c2nc(-c3cccs3)no2)CC1
AUC [16]: 82000 ng·h/mL

COc1c(N2CCNC(C)C2)c(F)cc2c(=O)c(C(=O)O)cn(C3CC3)c12 (stereo not given) [GATIFLOXACIN]
MIC90 [10]: 0.007 µg/mL (≈ 0.0186 µM)
half-life [17]: 6.5 h
MIC [12]: 0.12 µg/mL (≈ 0.32 µM)
Cmax [13]: 3400 ng/mL
AUC [18]: 30000 ng·h/mL
Tmax [19]: 1.5 h
log10CFU/ml/day [20]: 0.35

COc1c(N2C[C@@H]3CCCN[C@@H]3C2)c(F)cc2c(=O)c(C(=O)O)cn(C3CC3)c12 [MOXIFLOXACIN]
MIC [12]: 0.18 µg/mL (≈ 0.448 µM)
bioavailability [21]: 90%
Cmax [13]: 4300 ng/mL
AUC [18]: 39000 ng·h/mL
Tmax [22]: 1 h
log10CFU/ml/day [20]: 0.33

O=C([C@@H](O)CO)N1CC=C(c2c(F)cc(N3C[C@H](COc4ccon4)OC3=O)cc2F)CC1 [POSIZOLID]
bioavailability [23]: 100%
bioavailability [24]: < 30%

O=[N+]([O-])c1cn2c(n1)OC[C@@H](OCc1ccc(OC(F)(F)F)cc1)C2 [PRETOMANID]
MBC [25]: 100 mg/kg
minimal effective dose ([25]; Mycobacterium tuberculosis, read-out: MED): 12.5 mg/kg
Cmax [26]: 300 ng/mL
MIC [12]: 0.039 µg/mL (≈ 0.109 µM)
log10CFU/ml/day [27]: 0.1
Tmax [28]: 4 h
AUC [29]: 7500 ng·h/mL
MIC [1]: 0.06 µg/mL

C[C@H]1COC2(CCN(c3nc(=O)c4cc(C(F)(F)F)cc([N+](=O)[O-])c4s3)CC2)O1 [BTZ-043]
Cmax [30]: 2000 ng/mL
AUC at 672 h [31]: 4600 ng·h/mL
MIC [32]: 0.004 µg/mL (≈ 0.00927 µM)
log10cfu [33]: 2
MIC [6]: 0.001 µg/mL (≈ 0.00232 µM)
log10cfu [34]: 1

C[C@]1(COc2ccc(N3CCC(Oc4ccc(OC(F)(F)F)cc4)CC3)cc2)Cn2cc([N+](=O)[O-])nc2O1
log10CFU/ml/day [35]: 0.04
Tmax [36]: 4 h
MIC [1]: 0.006 µg/mL
Tmax [37]: 6 h
AUC [38]: 4130 ng·h/mL

OC1CCN(C2CCN(CC34CC5CC(CC(C5)C3)C4)CC2)CC1
inhibition of growth at 4 µg/mL [39]: 90%

CO[C@H]1/C=C/O[C@@]2(C)Oc3c(C)c(O)c4c(O)c(c(/C=N/N5CCN(C)CC5)c(O)c4c3C2=O)NC(=O)/C(C)=C\C=C\[C@H](C)[C@H](O)[C@@H](C)[C@@H](O)[C@@H](C)[C@H](OC(C)=O)[C@@H]1C [RIFAMPIN]
log10CFU/ml [7]: 1.7

CC(=O)NC[C@H]1CN(c2ccc(C(C)=O)cc2)C(=O)O1 [DUP-721]
MIC [6]: 0.3 µg/mL (≈ 1.09 µM)

COc1c(N2CC3(CC3)[C@](C)(N)C2)c(F)cc2c(=O)c(C(=O)O)cn([C@@H]3C[C@@H]3F)c12
Cmax [40]: 10300 ng/mL
Cmax [41]: 2200 ng/mL
AUC(0-inf) [42]: 14700 ng·h/mL
Ratio [43]: 4
Ratio [44]: 4
Ratio [45]: 4
log10cfu [46]: 2
MIC90 [1]: 0.06 µg/mL (≈ 0.143 µM)
AUC(0-t) at 24 h [47]: 16900 ng·h/mL
half-life [48]: 1.93 h
half-life [49]: 1.51 h

C[C@@H]1COC2(CCN(c3nc(=O)c4cc(C(F)(F)F)cc([N+](=O)[O-])c4s3)CC2)O1
MIC [32]: 0.004 µg/mL (≈ 0.00927 µM)
MIC [6]: 0.001 µg/mL (≈ 0.00232 µM)
